Data from patent EP4768484A1, “HETEROCYCLIC FUSED RING COMPOUND, AND COMPOSITION AND USE THEREOF” (Shenzhen TargetRx, Inc., priority 2023, dated 2025).

Assays:
Type in all cases: cell-based
K562 cells = assay: Cell growth inhibitory activity assay (CellTiter-Glo), K562 cells; conditions: Homo sapiens, 72 h, CTG cell viability
Summary of the method: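 K562 cells in logarithmic growth were counted, diluted and plated in 96-well plates, with medium-only blanks and a separate T0 plate read by CTG the following day. After overnight incubation, graded compound concentrations were added for 72 h, with 0.5% DMSO wells as growth controls. Luminescence was read on a Biotek cytation3.0, and IC50 came from nonlinear fitting in GraphPad Prism 7.0.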

Ba/F3 BCR-ABL1 WT = target: T1, Ba/F3 BCR-ABL1 WT (Homo sapiens, UniProt P00519+P11274); assay: Cell growth inhibitory activity assay (CellTiter-Glo), Ba/F3 BCR-ABL1 WT cells; conditions: 72 h, CTG cell viability
T1 construct: BCR (N-terminal fusion partner of the oncoprotein); expressed in transfected cells; host or cells: Ba/F3 (lentiviral transduction, monoclonal line)
Summary of the method: (§1)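 Compound dilutions applied for 72 h (37 °C, 5% CO2) to overnight-plated Ba/F3 cells, parental or engineered to express WT/mutant BCR-ABL1. ATP-based CellTiter-Glo luminescence read, referenced to day-0 viability and 0.5% DMSO wells; IC50 fitted by four-parameter logistic curve.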

Ba/F3 BCR-ABL1 T315I = target: T2, Ba/F3 BCR-ABL1 T315I (Homo sapiens, UniProt P00519+P11274, T315I); assay: Cell growth inhibitory activity assay (CellTiter-Glo), Ba/F3 BCR-ABL1 T315I cells; conditions: 72 h, CTG cell viability
T2 construct: BCR (N-terminal fusion partner of the oncoprotein); expressed in transfected cells; host or cells: Ba/F3 (lentiviral transduction, monoclonal line)
Summary of the method: as §1

Ba/F3 BCR-ABL1 T315M = target: T3, Ba/F3 BCR-ABL1 T315M (Homo sapiens, UniProt P00519+P11274, T315M); assay: Cell growth inhibitory activity assay (CellTiter-Glo), Ba/F3 BCR-ABL1 T315M cells; conditions: 72 h, CTG cell viability
T3 construct: BCR (N-terminal fusion partner of the oncoprotein); expressed in transfected cells; host or cells: Ba/F3 (lentiviral transduction, monoclonal line)
Method: In this assay, the Celltiter-Glo (CTG) kit provided by Promega was used, and it is a homogeneous cell viability assay method. The cell viability of cultured cells was measured by quantifying ATP. K562 cells were purchased from Nanjing Kebai, product number CBP60529; Ba/F3 parental cells were purchased from RIKEN BRC, product number RCB0805; other cells containing BCR-ABL1 WT, BCR-ABL1 T315I, BCR-ABL1 T315M, BCR-ABL1 Y253H/E255K, BCR-ABL1 E255V/T3151, BCR-ABL1 A424T, BCR-ABL1 A337V, BCR-ABL1 P465S, BCR-ABL1 V468F, and BCR-ABL1 I502L were all monoclonal engineered cell lines obtained by transducting Ba/F3 parental cells with the lentivirus plasmids containing WT or corresponding mutated BCR-ABL1.
The steps of cell viability assay are as follows: • a) Cells in logarithmic growth phase were collected. Cell suspension was prepared and the cells were counted. Concentration of the cells was calculated. • b) The cell suspension was diluted to the required concentration and then added to the middle wells of a 96-well plate, and PBS was added to the edge wells. The wells with no cells and only culture medium were used as blank controls. • c) In addition to the cell plate used for compound analysis, another 96-well plate was prepared as a T0 plate, and 3-6 blank wells and 3-6 cell wells were added. The next day, CTG was used to test the cell viability as the T0 viability value of the cells. • d) The cell plate was incubated at 37 °C in a 5% CO2 incubator overnight. • e) The next day, each concentration of a compound subjected to a gradient dilution was added, and the cell plate was incubated at 37 °C in a 5% CO2 incubator for 72 h. The wells with no compound and only 0.5% DMSO were used as positive controls for cell growth. • f) CTG reagent (CellTiter-Glo kit) was added according to the manufacturer's instructions to test the cell viability value. • g) The plate was read using Biotek cytation3.0 microplate reader and the data were exported. • h) IC50 was calculated using GraphPad Prism 7.0 software.
The IC50 (half-maximal inhibitory concentration) of the compound was obtained using the following nonlinear fitting formula: Y = Bottom + (Top−Bottom)/(1+10^(∧)((LogIC50−X)*HillSlope)) [formula] • X: Log value of the compound concentration • Y: Inhibition rate (% inhibition) • Top: Maximum response • Bottom: Baseline response • HillSlope: Slope of the curve
The formula for calculating cell inhibition rate (inhibition rate %) was: [formula]

Ba/F3 parental cells = assay: Cell growth inhibitory activity assay (CellTiter-Glo), Ba/F3 parental cells; conditions: Mus musculus, BaF3, 72 h, CTG cell viability, read-out: IC50 Ba/F3 BCR-ABL1 Parental
Summary of the method: as §1

Row | Compound | IC50 (K562 cells) | IC50 (Ba/F3 BCR-ABL1 WT) | IC50 (Ba/F3 BCR-ABL1 T315I) | IC50 (Ba/F3 BCR-ABL1 T315M) | IC50 (Ba/F3 parental cells)
1 | CC(=O)N[C@@H]1CCC2c3cc(C(=O)Nc4ccc(OC(F)(F)Cl)cc4)cc(-c4cnccn4)c3N(C(C)C)C21 (stereo partly drawn) [T-12-B, (3R)-3-acetamido-N-(4-(chlorodifluoromethoxy)phenyl)-4-isopropyl-5-(pyrazin-2-yl)-1,2,3,3a,4,8b-hexahvdrocyclopentalblindole-7-carboxamide] | ≤ 5 nM | ≤ 5 nM | 5 to 50 nM | 50 to 1000 nM | > 1000 nM
2 | CC(=O)N[C@@H]1CCC2c3cc(C(=O)Nc4ccc(OC(F)(F)Cl)cc4)cc(-c4cnc5c(c4)C(=O)N(C)C5)c3N(C(C)C)C21 (stereo partly drawn) [T-11-B, (3R)-3-acetamido-N-(4-(chlorodifluoromethoxy)phenyl)-4-isopropyl-5-(6-methyl-5-oxo-6,7-dihydro-5H-pyrrolo[3,4-b]pyridin-3-yl)-1,2,3,3a,4,8b-hexahydrocyclopenta[b]indole-7-carboxamide] | ≤ 5 nM | ≤ 5 nM | 5 to 50 nM | 50 to 1000 nM | > 1000 nM
3 | C[C@@H]1CCS(=O)(=O)c2nc3cc(C(=O)Nc4ccc(OC(F)(F)Cl)cc4)cc(-c4cnccn4)c3n21 [T-118, (R)-N-(4-(chlorodifluoromethoxy)phenyl)-4-methyl-6-(pyrazin-2-yl)-3,4-dihydro-2H-benzo[4,5]imidazo[2,1-b][1,3]thiazine-8-carboxamide 1,1-dioxide] | ≤ 5 nM | ≤ 5 nM | 5 to 50 nM | 50 to 1000 nM | > 1000 nM
4 | C[C@@H]1CCC(O)c2nc3cc(C(=O)Nc4ccc(OC(F)(F)Cl)cc4)cc(-c4cnc5c(c4)C(=O)NC5)c3n21 (stereo partly drawn) [T-33, (1R)-N-(4-(chlorodifluoromethoxy)phenyl)-4-hydroxy-1-methyl-9-(5-oxo-6,7-dihydro-5H-pyrrolo[3,4-b]pyridin-3-yl)-1,2,3,4-tetrahydrobenzo[4,5]imidazo[1,2-a]pyridine-7-carboxamide] | ≤ 5 nM | 5 to 50 nM | 50 to 1000 nM | 50 to 1000 nM | > 1000 nM
5 | Cc1ccnc(-n2cc3c(n2)-c2cc(-c4cc(C(=O)Nc5ccc(OC(F)(F)Cl)cc5)cc5nc6n(c45)[C@H](C)COC6)cnc2C3)n1 [T-73, (R)-N-(4-(chlorodifluoromethoxy)phenyl)-4-methyl-6-(2-(4-methylpyrimidin-2-yl)-2,4-dihydropyrazolo[3',4':3,4]cyclopenta[1,2-b]pyridin-7-yl)-3,4-dihydro-1H-benzo[4,5]imidazo[2,1-c][1,4]oxazine-8-carboxamide] | ≤ 5 nM | ≤ 5 nM | ≤ 5 nM | ≤ 5 nM | > 1000 nM
6 | CC(=O)N[C@H]1CCC2c3cc(C(=O)Nc4ccc(OC(F)(F)Cl)cc4)cc(-c4cnccn4)c3N(C(C)C)C21 (stereo partly drawn) [T-12-A, (3S)-3-acetamido-N-(4-(chlorodifluoromethoxy)phenyl)-4-isopropyl-5-(pyrazin-2-yl)-1,2,3,3a,4,8b-hexahydrocyclopenta[b]indole-7-carboxamide] | 50 to 1000 nM | 50 to 1000 nM | > 1000 nM | > 1000 nM | > 1000 nM
7 | C[C@@H]1CCC(O)c2nc3cc(C(=O)Nc4ccc(OC(F)(F)Cl)cc4)cc(-c4cnc5c(c4)C(=O)N(C4CC4)C5)c3n21 (stereo partly drawn) [T-32, (1R)-N-(4-(chlorodifluoromethoxy)phenyl)-9-(6-cyclopropyl-5-oxo-6,7-dihydro-5H-pyrrolo[3,4-b]pyridin-3-yl)-4-hydroxy-1-methyl-1,2,3,4-tetrahydrobenzo[4,5]imidazo[1,2-a]pyridine-7-carboxamide] | ≤ 5 nM | ≤ 5 nM | 50 to 1000 nM | 50 to 1000 nM | > 1000 nM
8 | C[C@@H]1CCOCc2nc3cc(C(=O)Nc4ccc(OC(F)(F)Cl)cc4)cc(-c4cnc5c(c4)C(=O)N(C)C5)c3n21 [T-39, (R)-N-(4-(chlorodifluoromethoxy)phenyl)-5-methyl-7-(6-methyl-5-oxo-6,7-dihydro-5H-pyrrolo[3,4-b]pyridin-3-yl)-4,5-dihydro-1H,3H-benzo[4,5]imidazo[2,1-c][1,4]oxazepine-9-carboxamide] | ≤ 5 nM | ≤ 5 nM | 50 to 1000 nM | > 1000 nM | > 1000 nM
